Source: PMC10949195, “Exponential Combination of a and e/g Intracellular Peptide Libraries Identifies a Selective ATF3 Inhibitor” (ACS Chemical Biology, 2024)

Tests used:
ATF3 [1] = molecular target: T1, ATF3 (Homo sapiens, UniProt P18847); assay: CD thermal denaturation of peptide mixed 1:1 with ATF3; assay type: binding; details: peptide incubated with ATF3; CD signal at 222 nm, 1 °C increments; 150 μM total peptide; 10 mM potassium phosphate, 100 mM potassium fluoride, pH 7.0; two-state denaturation model
T1 construct: We focus on the selective targeting of the ATF3 leucine zipper dimerization domain using intracellular peptide library screening; made in house; host or cells: chemical solid-phase peptide synthesis (no expression host)
T1 sequence (P18847 110-143): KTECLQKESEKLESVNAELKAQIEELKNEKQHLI
From the text: Following the observed significant increase in global secondary structure content for the ATF3-ATF3W_aeg complex relative to component peptides (Figure 6), we next analyzed the stability of the complex by undertaking thermal denaturation experiments (Figure 7). […] Moreover, consistent with spectral data, the clear increase from the average profile of the component peptides relative to that of the measured is most pronounced in the combined construct (Figure 7, red hash vs black). This provides robust additional evidence for a preferential interaction between ATF3 and ATF3W_aeg that is improved over either the core a or electrostatic e/g constructs.
Shown are thermal stabilities of peptide pairs measured via temperature dependence of the CD signal at 222 nm. The thermal denaturation profiles for (a) ATF3-ATF3W_a, (b) ATF3-ATF3W_eg, and (c) ATF3-ATF3W_aeg show a substantial increase in the transition midpoint (Tm = 59 °C) relative to component peptides (black vs red hash). Experiments were performed in 10 mM potassium phosphate and 100 mM potassium fluoride (pH 7.0). All spectra were recorded at 1 °C increments at a total peptide concentration of 150 μM and fitted to a two-state denaturation model.
Thermal denaturation experiments were performed at 150 μM total protein concentration in 10 mM potassium phosphate and 100 mM potassium fluoride, pH 7, using an Applied Photophysics Chirascan CD instrument (Leatherhead, UK) as previously described.[23]

ATF3 [2] = molecular target: T1, ATF3; assay: Isothermal titration calorimetry (ITC); assay type: binding; details: 20 °C, pH 7.0
Protocol: To provide additional insight into the origin of the binding affinity (KD) between ATF3 and ATF3W_aeg, isothermal titration calorimetry (ITC) experiments were performed. […] The free energy of binding was predominantly driven by a favorable enthalpic term (ΔH = −14.6 kcal/mol) and opposed by an unfavorable entropic component (TΔS= −5.33 kcal/mol).
Figure 9 Isothermal titration calorimetry analysis of the ATF3-ATF3W_aeg interaction. In the bottom plot, the solid line represents the fit to the data based on the binding of a ligand to a macromolecule using the MicroCal (GE Healthcare) Origin software.[16] See Materials and Methods for further details.
ITC measurements were made using a Microcal PEAQ-ITC instrument with data collected and processed using the Origin 7.0 software package.[14],[23] All measurements were carried out at least twice. Briefly, all peptides were studied at 20 °C in 10 mM potassium phosphate and 100 mM potassium fluoride at pH 7.0. 40 μL of ATF3W_aeg was loaded into the syringe at 60 μM peptide concentration. 350 μL of ATF3 was loaded into the cell at 6 μM. The experiment was undertaken by injecting 2 μL of ATF3W_aeg 19 times into the calorimetric cell. Following ITC measurements, the data were fit to a one-site model.

[3] = CD spectra of peptide in isolation (helicity, 222/208 ratio); assay type: physicochemical; details: 20 °C, 150 μM total peptide, pH 7.0
Protocol: ATF3, ATF3W_a, and ATF3W_eg and combined hit sequence ATF3W_aeg were synthesized using solid phase peptide synthesis, purified by RP-HPLC, and verified for correct mass using ESI-MS (Figure S3), after which circular dichroism (CD) was used to characterize both ATF3 and antagonist peptides for helicity and interactions as homodimers, as well as heterodimers with the ATF3 target. Global secondary analysis of both homodimeric and heterodimeric systems was carried out at a total peptide concentration of 150 μM to keep equimolar concentrations of each component helix. The 222/208 ratio was used to provide evidence on whether the helices were likely to be monomeric or adopt quaternary structure.[13] […] Furthermore, incubation of ATF3 with ATF3W_aeg elicited a significant conformational change in the sample relative to the average of the component peptides (Figure 6d black line vs red hash), providing compelling evidence for an interaction.[14] In addition, the component PCA hits were examined using CD.
Figure 6 CD spectra data indicates a ATF3-ATF3W_aeg interaction. […] Spectra were next measured at 20 and 5 °C and again post-thermal denaturation (PM 20 °C to establish reversible that unfolding is fully reversible) at a total peptide concentration of 150 μM and presented as mean residue ellipticity (MRE). […]

[4] = Size-exclusion chromatography of peptide alone; assay type: physicochemical; details: Superdex Peptide 10/300 GL, RT; 20 μM total peptide
Protocol: During SEC experiments, monomeric ATF3 (Figure 8, blue line) and ATF3W_aeg (Figure 8, green line) eluted at approximately 20 min. These contrast with the dimeric profile observed for ATF3-ATF3W_aeg (Figure 8, black line), which occurred at approximately 19 min. For all samples, elution profiles were consistent with either a validated monomer or dimer elution pattern.[15]
Figure 8 SEC profiles indicate that ATF3W_aeg binds ATF3. Shown are size exclusion chromatography profiles for interacting peptides. The peak at approx 19 min for the ATF3-ATF3W_aeg mixture (black trace) represents a dimeric sample while ATF3 (blue trace) and ATF3W_aeg (green trace) generate a peak at approx 20 min, indicating the presence of a monomer. These experiments, undertaken at a total peptide concentration of 20 μM, provide additional evidence for selectivity of the ATF3-ATF3W_aeg interaction. Arrows show controls from previous peptides with elution times for a 32 mer Fos monomeric peptide (20 min) and a 37 mer cJun–FosW heterodimer (18.5 min).[15]
Size-exclusion experiments were performed at RT using a Superdex Peptide 10/300 GL column (GE Healthcare Life Sciences) as described previously.[23]

Substance: Ac-ELAALEQKAYALKQENAALEKEVAALEQKIAALK-NH2 (N-terminus and C-terminus assumed) [ATF3W_aeg]
- transition midpoint (Tm) of heterodimer with ATF3 (ATF3 [1]): 60 °C
- N (sites), stoichiometry of binding to ATF3 (ATF3 [2]): 0.72
- TΔS of binding to ATF3 (ATF3 [2]): -5.33 kcal/mol
- ΔG of binding to ATF3 (ATF3 [2]): -9.31 kcal/mol
- ΔH of binding to ATF3 (ATF3 [2]): -14.6 kcal/mol
- fractional helicity (fH), peptide in isolation ([3]; 10 mM potassium phosphate, 100 mM potassium fluoride): ~38%
- 222/208 ratio, peptide in isolation [3]: 0.76
- SEC elution time, peptide alone [4]: approximately 20 min
- oligomeric state in solution by SEC, peptide alone [4]: exclusively as a monomer
